Test results: patent US10294236B2, “Compounds as rearranged during transfection (RET) inhibitors” (GLAXOSMITHKLINE INTELLECTUAL PROPERTY DEVELOPMENT LIMITED, priority 2014, dated 2019)

Target: T1, Human RET kinase cytoplasmic domain (Homo sapiens, UniProt P07949)
T1 construct: made in house
T1 sequence (P07949 658-1114): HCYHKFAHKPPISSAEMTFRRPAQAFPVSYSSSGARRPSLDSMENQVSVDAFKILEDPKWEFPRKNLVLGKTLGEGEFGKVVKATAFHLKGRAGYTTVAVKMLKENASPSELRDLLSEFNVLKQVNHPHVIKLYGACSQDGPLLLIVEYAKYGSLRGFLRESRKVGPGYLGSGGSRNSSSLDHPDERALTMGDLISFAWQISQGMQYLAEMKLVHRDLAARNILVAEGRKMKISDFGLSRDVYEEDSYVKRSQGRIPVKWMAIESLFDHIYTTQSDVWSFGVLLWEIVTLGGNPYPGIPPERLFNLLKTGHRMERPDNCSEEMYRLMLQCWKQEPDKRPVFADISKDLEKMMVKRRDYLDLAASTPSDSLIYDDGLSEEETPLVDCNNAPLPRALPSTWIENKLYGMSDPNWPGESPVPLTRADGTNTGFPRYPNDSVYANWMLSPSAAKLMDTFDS
Assay: RET kinase enzymatic assay
Assay type: biochemical
Protocol: GST-RET was purified using glutathione sepharose chromatography. The RET kinase enzymatic assay was performed in a total volume of 10 uL with increasing concentrations of RET kinase inhibitor as a singlet in a 384 well format as follows: RET inhibitor compound plates are prepared by adding 100 nL of RET inhibitor at different concentrations to a 384-well plate. 5 μL/well of a 2× enzyme mix (50 mM HEPES (4-(2-hydroxyethyl)-1-piperazineethanesulfonic acid); 1 mM CHAPS (3-[(3-cholamidopropyl)dimethylammonio]-1-propanesulfonate); 0.1 mg/mL BSA (bovine serum albumin); 1 mM DTT (dithiothreitol); 0.2 nM RET kinase) was added to the 384-well plate and incubated for 30 minutes at 23° C. 5 µL/well of a 2× substrate mix (50 mM HEPES; 1 mM CHAPS; 0.1 mg/mL BSA; 20 μM adenosine triphosphate; 20 mM MgCl2 and 1 μM biotinylated peptide substrate) was added and incubated for 1 hour at 23° C. […] IC50s were fitted using GraphPad Prism to a sigmoidal dose response.

| SMILES | IC50 [nM] |
| --- | --- |
| CCOc1cc(Oc2ccc(NC(=O)Nc3ccc(OC4(C)COC4)c(C(F)(F)F)c3)cc2)c[nH]c1=O [Example 49, 1-(4-((5-Ethoxy-6-oxo-1,6-dihydropyridin-3-yl)oxy)phenyl)-3-(4-((3-methyloxetan-3-yl)oxy)-3-(trifluoromethyl)phenyl)urea] | < 100 |
| CCOc1cc(-c2ncc(NC(=O)Nc3ccc(C(C)(C)C(N)=O)c(C(F)(F)F)c3)c(C)n2)c[nH]c1=O [Example 63, 2-(4-(3-(2-(5-Ethoxy-6-oxo-1,6-dihydropyridin-3-yl)-4-methylpyrimidin-5-yl)ureido)-2-(trifluoromethyl)phenyl)-2-methylpropanamide] | < 100 |
| CCOc1cc(=O)[nH]cc1-c1ncc(NC(=O)Nc2ccc(CC(C)(C)CO)c(C(F)(F)F)c2)c(C)n1 [Example 47, 1-(2-(4-Ethoxy-6-oxo-1,6-dihydropyridin-3-yl)-4-methylpyrimidin-5-yl)-3-(4-(3-hydroxy-2,2-dimethylpropyl)-3-(trifluoromethyl)phenyl)urea] | < 100 |
| CCOc1cc(-c2ccc(NC(=O)Nc3ccc(C(C)C#N)c(C(F)(F)F)c3)c(F)c2)c[nH]c1=O (stereo not shown) [Example 127] | < 100 |
| CCOc1cc(=O)[nH]cc1-c1ncc(NC(=O)Nc2cnc(C(C)(C)O)c(C(F)(F)F)c2)c(C)n1 [Example 28, 1-(2-(4-Ethoxy-6-oxo-1,6-dihydropyridin-3-yl)-4-methylpyrimidin-5-yl)-3-(6-(2-hydroxypropan-2-yl)-5-(trifluoromethyl)pyridin-3-yl)urea] | < 100 |
| CC1(Oc2ccc(NC(=O)Nc3ccc(-c4ccc(=O)[nH]c4)cc3)cc2C(F)(F)F)COC1 [Example 157] | < 100 |
| CCOc1cc(-c2ccc(NC(=O)Nc3ccc(OC4(C)COC4)c(C(F)(F)F)c3)c(F)c2)c[nH]c1=O [Example 130] | < 100 |
| CC1(Oc2ccc(NC(=O)Nc3ccc(-c4c[nH]c(=O)c5occc45)cc3F)cc2C(F)(F)F)COC1 [Example 1, 1-(2-Fluoro-4-(7-oxo-6,7-dihydrofuro[2,3-c]pyridin-4-yl)phenyl)-3-(4-((3-methyloxetan-3-yl)oxy)-3-(trifluoromethyl)phenyl)urea] | < 100 |
| CCOc1cc(-c2ccc(NC(=O)Nc3ccc(OC4(CO)CCC4)c(C(F)(F)F)c3)c(F)c2)c[nH]c1=O [Example 134] | < 100 |
| CCOc1cc(-c2ncc(NC(=O)Nc3ccc(C(C)N)c(C(F)(F)F)c3)c(C)n2)c[nH]c1=O (stereo not shown) [Example 175, 1-(4-(1-Aminoethyl)-3-(trifluoromethyl)phenyl)-3-(2-(5-ethoxy-6-oxo-1,6-dihydropyridin-3-yl)-4-methylpyrimidin-5-yl)urea] | < 100 |
| CCOc1cc(-c2ccc(NC(=O)Nc3ccc(OC4(C)CS(=O)(=O)C4)c(C(F)(F)F)c3)c(F)c2)c[nH]c1=O [Example 150] | < 100 |
| CCOc1cc(-c2ncc(NC(=O)Nc3cc(-n4cnc(C)c4)cc(C(F)(F)F)c3)c(C)n2)c[nH]c1=O [Example 57, 1-(2-(5-Ethoxy-6-oxo-1,6-dihydropyridin-3-yl)-4-methylpyrimidin-5-yl)-3-(3-(4-methyl-1H-imidazol-1-yl)-5-(trifluoromethyl)phenyl)urea] | < 100 |
| O=C(Nc1ccc(F)c(C(F)(F)F)c1)Nc1ccc(-c2c[nH]c(=O)c(OCCCF)c2)cc1F [Example 107] | < 100 |

The next lines start with the values.

| IC50 [nM] | SMILES |
| --- | --- |
| < 100 | CCOc1cc(=O)[nH]cc1-c1ncc(NC(=O)Nc2ccc(C(C)C#N)c(C(F)(F)F)c2)c(C)n1 (stereo not shown) [Example 24, 1-(4-(1-Cyanoethyl)-3-(trifluoromethyl)phenyl)-3-(2-(4-ethoxy-6-oxo-1,6-dihydropyridin-3-yl)-4-methylpyrimidin-5-yl)urea] |
| < 100 | Cc1nc(-c2c[nH]c(=O)c(OCCO)c2)ncc1NC(=O)Nc1cc(C(F)(F)F)c(CN2CCN(CCO)CC2)cc1F [Example 173, 1-(2-Fluoro-4-((4-(2-hydroxyethyl)piperazin-1-yl)methyl)-5-(trifluoromethyl)phenyl)-3-(2-(5-(2-hydroxyethoxy)-6-oxo-1,6-dihydropyridin-3-yl)-4-methylpyrimidin-5-yl)urea] |
| < 100 | CCOc1cc(-c2ccc(NC(=O)Nc3ccc(C(C)(C)CO)c(C(F)(F)F)c3)c(F)c2)c[nH]c1=O [Example 120] |
| < 100 | CCOc1cc(-c2cnc(NC(=O)Nc3ccc(OC4(C)COC4)c(C(F)(F)F)c3)c(C)n2)c[nH]c1=O [Example 108] |
| < 100 | CCOc1cc(-c2ccc(NC(=O)Nc3ccc(CC(C)(C)C#N)c(C(F)(F)F)c3)c(F)c2)c[nH]c1=O [Example 81] |
| < 100 | CCOc1cc(-c2cnc(NC(=O)Nc3ccc(CC(C)(C)CO)c(C(F)(F)F)c3)c(C)c2)c[nH]c1=O [Example 9, 1-(5′-Ethoxy-5-methyl-6′-oxo-1′,6′-dihydro-[3,3′-bipyridin]-6-yl)-3-(4-(3-hydroxy-2,2-dimethylpropyl)-3-(trifluoromethyl)phenyl)urea] |
| < 100 | CCOc1cc(=O)[nH]cc1-c1ncc(NC(=O)Nc2ccc(C#N)c(C(F)(F)F)c2)c(C)n1 [Example 44, 1-(4-Cyano-3-(trifluoromethyl)phenyl)-3-(2-(4-ethoxy-6-oxo-1,6-dihydropyridin-3-yl)-4-methylpyrimidin-5-yl)urea] |
| < 100 | CCOc1cc(=O)[nH]cc1-c1ncc(NC(=O)Nc2ccc(CN(C)C)c(C(F)(F)F)c2)c(C)n1 [Example 55, 1-(4-((Dimethylamino)methyl)-3-(trifluoromethyl)phenyl)-3-(2-(4-ethoxy-6-oxo-1,6-dihydropyridin-3-yl)-4-methylpyrimidin-5-yl)urea] |
| < 100 | CCOc1cc(Oc2ccc(NC(=O)Nc3ccc(CN4CCN(CC)CC4)c(C(F)(F)F)c3)cc2)c[nH]c1=O [Example 31, 1-(4-((5-Ethoxy-6-oxo-1,6-dihydropyridin-3-yl)oxy)phenyl)-3-(4-((4-ethylpiperazin-1-yl)methyl)-3-(trifluoromethyl)phenyl)urea] |
| < 100 | CCOc1cc(=O)[nH]cc1-c1ncc(NC(=O)Nc2ccc(C(C)(C)C#N)c(C(F)(F)F)c2)c(C)n1 [Example 26, 1-(4-(2-Cyanopropan-2-yl)-3-(trifluoromethyl)phenyl)-3-(2-(4-ethoxy-6-oxo-1,6-dihydropyridin-3-yl)-4-methylpyrimidin-5-yl)urea] |
| < 100 | CCOc1cc(-c2ccc(NC(=O)Nc3ccc(OC4(C)COC4)c(C(F)(F)F)c3)nc2)c[nH]c1=O [Example 27, 1-(5′-Ethoxy-6′-oxo-1′,6′-dihydro-[3,3′-bipyridin]-6-yl)-3-(4-((3-methyloxetan-3-yl)oxy)-3-(trifluoromethyl)phenyl)urea] |
| < 100 | CCOc1cc(-c2ccc(NC(=O)Nc3ccc(OC4(C)COC4)c(C(F)(F)F)c3)c(Cl)n2)c[nH]c1=O [Example 87] |
| < 100 | CC1(Oc2ccc(NC(=O)Nc3ccc(-c4c[nH]c(=O)cc4F)cc3F)cc2C(F)(F)F)COC1 [Example 37, 1-(2-Fluoro-4-(4-fluoro-6-oxo-1,6-dihydropyridin-3-yl)phenyl)-3-(4-((3-methyloxetan-3-yl)oxy)-3-(trifluoromethyl)phenyl)urea] |
| < 100 | CCOc1cc(-c2ccc(NC(=O)Nc3ccc(OC4(C)COC4)c(C(F)(F)F)c3)c(C3CC3)n2)c[nH]c1=O [Example 104] |
| < 100 | CCOc1nc(=O)[nH]cc1-c1ccc(NC(=O)Nc2ccc(OC3(C)COC3)c(C(F)(F)F)c2)c(F)c1 [Example 34, 1-(4-(4-Ethoxy-2-oxo-1,2-dihydropyrimidin-5-yl)-2-fluorophenyl)-3-(4-((3-methyloxetan-3-yl)oxy)-3-(trifluoromethyl)phenyl)urea] |
